“And” between values parts separate entries of the source, which are not always exact repeats. Equal entries are not always repeated. “Also recorded” adds a separate entry of the source. Where a SMILES comes first, the peptide text is derived from it.
How the values were obtained:
Type in all cases: binding
hCdh1^WD40 = target: T1, hCdh1^WD40 (Homo sapiens, UniProt Q9UM11); experiment: SMOR assay, human Cdh1 WD40; conditions: for mean dwell time: representative of two independent experiments, ± SE, ligand ≤1 nM, buffer C + BSA
T1 construct: human Cdh1 (aa 165–484; pNH164); made in house; host or cells: Sf9 insect cells (baculovirus)
Protocol: (§1) Activators were cloned into the pFastBac HT A vector, with an N-terminal 2xStrep-Tag II. For some experiments, we constructed vectors for expression of the WD40 domains of yeast Cdh1 (aa 241–550; pNH144), human Cdh1 (aa 165–484; pNH164), or human Cdc20 (aa 162–484; pNH188). For SMOR, a C-terminal GFP tag was added. Bacmid plasmids are listed in Supplementary Table 3. Plasmids were transformed into DH10Bac cells, and purified Bacmid was used to transfect Sf9 cells to generate P1 baculovirus, which was used to generate P2 virus. SF9 cells were infected with the P2 virus for 48 h. Flash-frozen pellets were lysed by sonication or high-pressure homogenization in lysis buffer B (50 mM Tris-HCl pH 8, 150 mM KCl, 0.5 mM EDTA, 1 mM DTT, 10% Glycerol, EDTA-free protease inhibitor tablet, 1 µg ml^−1 pepstatin A). After the lysate was applied to the StrepTrap column, the column was washed with wash buffer B (lysis buffer B lacking protease inhibitors) and eluted in the same buffer containing 2.5 mM desthiobiotin.
(§2) For all SMOR experiments, 24 × 50 mm high precision glass coverslips (Bioscience Tools) and drilled microscope slides were passivated with a combination of PEG and PEG-biotin (coverslips) or PEG only (slides) following a previously published protocol for SiMPull[31]. Reaction chambers (~20 µl) were created using double-sided tape and epoxy. Protein was immobilized on the surface with 0.2 mg ml^−1 NeutrAvidin in buffer C (20 mM HEPES pH 7.5, 150 mM KCl, 10% glycerol, 0.05% Tween-20, 1 mM DTT). Excess NeutrAvidin was washed away and incubated with either biotin-conjugated mouse monoclonal anti-Strep-Tag II antibody (LSBio, Cat. No. LS-C203632-100) or biotin-conjugated rabbit polyclonal anti-GFP antibody (Rockland, Cat. No. 600-406-215) diluted in buffer C + BSA (0.1 mg ml^−1; Molecular Biology Grade Bovine Serum Albumin). Activator WD40 and activated APC/C (typically 50 µl containing about 65 ng APC/C, of which only a small fraction is immobilized on the glass) were immobilized using anti-Strep-Tag II, while APC/C alone was immobilized with anti-GFP. SMOR results were similar when performed in the buffer (wash buffer B) used in polarization anisotropy.
(§3) To capture dynamic protein–protein interactions, dye-labeled substrate diluted in buffer C + BSA was added to the chamber containing immobilized proteins. Interactions were imaged by TIRF microscopy as described below. For optimal signal-to-noise ratio, peptide concentration was no greater than 1 nM. Protein substrates included Hsl1 aa 667–872 and a C-terminal HaloTag followed by a TAP tag, and were produced by translation in rabbit reticulocyte lysates using TnT Quick Coupled Transcription/Translation System (Promega) (see Supplementary Table 5 for plasmids). Protein was purified with magnetic IgG beads and labeled on the bead with JF549 or JF646 dye so that unbound dye could be washed away. Purified dye-labeled protein was then cleaved from the beads using TEV protease. Before adding substrate to the reaction chamber, oxygen scavenging reagents were added (10 nM protocatechuate-3,4-dioxygenase, 2.5 mM protocatechuic acid, and 1 mM Trolox)[41]. A detailed description of the SMOR analysis pipeline is found in Supplementary Note 1.
(§4) Microscopy was performed with a Nikon Eclipse TE2000-E with Perfect Focus with a 100 × 1.49na oil, Apo TIRF DIC N2, 0.13-0.2, WD0.12 objective. Movies were recorded using the Andor iXon DU-897E-CSO. For visualizing GFP-tagged protein, a 491 nm laser was used with an ET525/50 (Chroma) filter for emission. For visualizing JF549-labeled substrate, a 561 nm laser was used with an ET595/50 (Chroma) filter for emission. For visualizing all Cy5-labeled peptides and JF646-labeled substrates, a 640 nm laser was used with an ET685/70 filter (Chroma) for emission. […]

hCdc20^WD40 = target: T2, hCdc20^WD40 (Homo sapiens, UniProt Q12834); experiment: SMOR assay, human Cdc20 WD40; conditions: for Dwell Time: Clb5: Not 3x shutter speed
T2 construct: human Cdc20 (aa 162–484; pNH188); made in house; host or cells: Sf9 insect cells (baculovirus)
Protocol: as §1, §2, §3, §4

APC/C^Cdc20 = target: T3, APC/C^Cdc20 (Saccharomyces cerevisiae, UniProt P26309+P53068); experiment: SMOR assay, yeast APC/C^Cdc20; conditions: for mean dwell time: representative of two independent experiments, ± SE, ligand ≤1 nM, buffer C + BSA
T3 construct: APC/C was purified from yeast cells; made in house; host or cells: APC/C from S. cerevisiae W303 strain NHY13 (Cdc16-TAP, Apc1-GFP, cdh1 deleted); Cdc20 from Sf9 (baculovirus)
Protocol: Yeast strains were derivatives of W303 and are listed in Supplementary Table 2. For APC/C purification, we used a strain carrying Cdc16-TAP and lacking Cdh1 (DOM1126); in most experiments, the strain also carried Apc1-GFP (NHY13). Yeast were grown in YPD media to OD600 = 0.8, collected and flash-frozen. Cells were lysed by bead beating in lysis buffer A (50 mM HEPES pH 7.5, 150 mM KCl, 10% glycerol, 0.2% Triton X-100, 63 µM B-glycerophosphate, 48 µM sodium fluoride, 1 µg ml^−1 pepstatin A, 1 µg ml^−1 leupeptin, 1 µg ml^−1 aprotinin, 1 mM PMSF, 1 mM DTT, 0.5 mM EDTA) and APC/C was purified using magnetic IgG beads. The beads were washed using wash buffer A (20 mM HEPES pH 7.5, 150 mM KCl, 10% Glycerol, 0.05% Triton X-100). After incubation with purified Cdh1 or Cdc20, the APC/C was cleaved off the beads with TEV protease in wash buffer A with 0.05% Tween-20 (for single-molecule studies) or 0.05% Triton X-100 (for ensemble assays such as ubiquitylation) and used immediately.
as §2, §3
Microscopy was performed with a Nikon Eclipse TE2000-E with Perfect Focus with a 100 × 1.49na oil, Apo TIRF DIC N2, 0.13-0.2, WD0.12 objective. Movies were recorded using the Andor iXon DU-897E-CSO. For visualizing GFP-tagged protein, a 491 nm laser was used with an ET525/50 (Chroma) filter for emission. For visualizing JF549-labeled substrate, a 561 nm laser was used with an ET595/50 (Chroma) filter for emission. For visualizing all Cy5-labeled peptides and JF646-labeled substrates, a 640 nm laser was used with an ET685/70 filter (Chroma) for emission. Initially, for each substrate tested, we acquired movies at multiple intervals to deduce the optimal interval to decrease bleaching. µManager version 2.0 was used to control the microscope and record time-lapse movies.

[1] = Supplementary Table 1, replicate 1 (movie listed first)
[2] = Supplementary Table 1, replicate 2 (movie listed second)
[3] = Supplementary Table 1, replicate 1
[4] = Supplementary Table 1, replicate 2

T2 sequence (Q12834 162-484): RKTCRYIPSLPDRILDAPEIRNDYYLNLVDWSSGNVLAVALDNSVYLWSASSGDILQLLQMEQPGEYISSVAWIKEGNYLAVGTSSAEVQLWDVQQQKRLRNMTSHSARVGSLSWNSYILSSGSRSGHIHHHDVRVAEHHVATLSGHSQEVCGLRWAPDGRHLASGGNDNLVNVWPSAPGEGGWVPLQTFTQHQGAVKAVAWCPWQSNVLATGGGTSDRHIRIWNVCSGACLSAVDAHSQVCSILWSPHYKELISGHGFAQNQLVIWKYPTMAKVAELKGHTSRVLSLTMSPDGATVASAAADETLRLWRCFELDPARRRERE
T1 sequence (Q9UM11 165-484): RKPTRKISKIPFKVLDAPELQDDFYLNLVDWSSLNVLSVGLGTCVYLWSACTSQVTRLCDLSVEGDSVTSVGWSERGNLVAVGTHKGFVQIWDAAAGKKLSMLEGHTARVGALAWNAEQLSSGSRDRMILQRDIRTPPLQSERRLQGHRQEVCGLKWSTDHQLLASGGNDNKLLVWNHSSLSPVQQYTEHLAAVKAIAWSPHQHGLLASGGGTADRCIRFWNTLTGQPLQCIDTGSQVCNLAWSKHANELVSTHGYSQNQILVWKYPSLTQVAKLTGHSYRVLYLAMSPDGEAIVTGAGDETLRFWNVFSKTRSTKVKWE

| Compound | Dwell Time (hCdh1^WD40; [1]) | Dwell Time (hCdh1^WD40; [2]) | mean dwell time (hCdh1^WD40) | binding (in words) (hCdc20^WD40) | Dwell Time (in words) (hCdc20^WD40; [3]) | Dwell Time (in words) (hCdc20^WD40; [4]) | binding (in words) (APC/C^Cdc20) | Dwell Time (in words) (APC/C^Cdc20; [3]) | Dwell Time (in words) (APC/C^Cdc20; [4]) | binding (in words) (hCdh1^WD40) | Dwell Time (in words) (hCdh1^WD40; [3]) | Dwell Time (in words) (hCdh1^WD40; [4]) | Dwell Time (APC/C^Cdc20; [1]) | Dwell Time (APC/C^Cdc20; [2]) | mean dwell time (APC/C^Cdc20) | fold higher affinity for APC/C^Cdc20 (APC/C^Cdc20; vs APC/C^Cdh1) | Dwell Time (hCdc20^WD40; [1]) | Dwell Time (hCdc20^WD40; [2]) | mean dwell time (hCdc20^WD40; less than three times the frame rate, therefore less reliable (footnote a)) |
| --- | --- | --- | --- | --- | --- | --- | --- | --- | --- | --- | --- | --- | --- | --- | --- | --- | --- | --- | --- |
| LPKATRKALGTVNRATEKSVK-K(Cy5) [AurKB D box, Cy5-labeled D box peptide of Aurora B kinase] | 0.202 ± 0.003 s | 0.135 ± 0.003 s | 0.202 ± 0.003 s and 0.202 s | single-frame interactions only | single frame | single frame | No binding | no binding | no binding |  |  |  |  |  |  |  |  |  |  |
| CC[C@H](C)[C@H](NC(=O)[C@H](CC(=O)O)NC(=O)[C@H](CO)NC(=O)[C@H](C)NC(=O)[C@H](C)NC(=O)[C@H](C)NC(=O)[C@H](C)NC(=O)[C@H](CCCCN)NC(=O)[C@@H]1CCCN1C(=O)[C@H](CCCCN)NC(=O)[C@H](CCC(N)=O)NC(=O)[C@@H](N)CCC(=O)O)C(=O)N[C@H](C(=O)N[C@@H](C)C(=O)N[C@@H](CO)C(=O)N[C@@H](Cc1ccccc1)C(=O)N[C@@H](CC(N)=O)C(=O)N[C@@H](CCCCN)C(=O)N[C@@H](CCSC)C(=O)N[C@@H](CC(N)=O)C(=O)N[C@@H](CCCCN)C(=O)O)[C@@H](C)O [Hsl1 D box mutant] (H-EQKPKAAAASDITASFNKMNK-OH; N-terminus and C-terminus assumed) |  |  |  | No binding | no binding |  | No binding | no binding | no binding | No binding | no binding |  |  |  |  |  |  |  |  |
| CC[C@H](C)[C@H](NC(=O)[C@H](Cc1ccccc1)NC(=O)[C@H](CO)NC(=O)[C@H](CCCCN)NC(=O)[C@H](CO)NC(=O)[C@H](CCCNC(=N)N)NC(=O)[C@H](CC(N)=O)NC(=O)[C@H](CC(N)=O)NC(=O)[C@H](CC(=O)O)NC(=O)[C@H](CCCCN)NC(=O)[C@H](C)NC(=O)[C@H](C)NC(=O)[C@H](CC(C)C)NC(=O)[C@@H]1CCCN1C(=O)[C@H](CC(C)C)NC(=O)[C@H](CCCNC(=N)N)NC(=O)CNC(=O)[C@H](CCC(N)=O)NC(=O)[C@H](CCC(N)=O)NC(=O)[C@H](CCC(N)=O)NC(=O)[C@H](C)N)C(=O)N[C@@H](CCCCN)C(=O)O [ySecurin D box] (H-AQQQGRLPLAAKDNNRSKSFIK-OH; N-terminus and C-terminus assumed) |  |  |  |  | single frame | single frame |  |  |  |  | single frame | single frame | 1.859 ± 0.041 s | 1.870 ± 0.035 s | 1.87 ± 0.04 s and 1.87 s | 15 fold |  |  |  |
| LIYVDKENGEPGTR-K(Cy5) [hSecurin KEN, Cy5-labeled KEN box peptide of human securin/Pttg1] | 0.171 ± 0.004 s | 0.174 ± 0.003 s | 0.174 ± 0.003 s and 0.174 s | did not bind human Cdc20^WD40; also recorded: No binding | no binding | no binding | No binding | no binding | no binding |  |  |  |  |  |  |  |  |  |  |
| CC(C)C[C@H](NC(=O)[C@H](C)NC(=O)[C@H](CCCNC(=N)N)NC(=O)[C@H](CCCNC(=N)N)NC(=O)[C@@H]1CCCN1C(=O)[C@H](CCCCN)NC(=O)[C@H](CO)NC(=O)[C@H](CC(=O)O)NC(=O)[C@@H](N)CCC(N)=O)C(=O)N[C@H](C(=O)N[C@@H](CC(=O)O)C(=O)N[C@H](C(=O)N1CCC[C@H]1C(=O)N[C@H](C(=O)N[C@@H](CC(N)=O)C(=O)N[C@@H](CC(N)=O)C(=O)N[C@@H](CC(N)=O)C(=O)N1CCC[C@H]1C(=O)N[C@@H](CC(C)C)C(=O)N[C@@H](CO)C(=O)N[C@@H](CCC(N)=O)C(=O)N[C@@H](CCCCN)C(=O)O)C(C)C)C(C)C)[C@@H](C)O [Clb5 D box] (H-QDSKPRRALTDVPVNNNPLSQK-OH; N-terminus and C-terminus assumed) |  |  |  |  |  |  |  |  |  |  | single frame | single frame | 0.179 ± 0.008 s | 0.207 ± 0.008 s | 0.207 ± 0.008 s and 0.207 s |  | 0.054 ± 0.001 s | 0.058 ± 0.001 s | 0.054 s^a |
| SKAAQFMLYEETAEERNI-K(Cy5) [Acm1 ABBA, Cy5-labeled Cdh1-specific ABBA motif from pseudosubstrate yeast protein Acm1] |  |  |  | No binding | no binding | no binding | No binding | no binding | no binding | No binding | no binding | no binding |  |  |  |  |  |  |  |
